Results published in patent publication US10265298B2, “Method of increasing the bioavailability of silybin” (Macau University of Science and Technology, priority 2017, dated 2019).
pIC50: −log10 of the molar value.

Key:
[1] = in vivo, po; for Cmax of free silybin / mean Cmax of total silybin (parent plus sulfate and glucuronide conjugates): rat
Method: The rats were randomly divided into three groups with six rats in each group. The oral administration dosages of silybin were 10 and 50 mg/10 ml/kg body weight without or with baicalein/tangeretin at the same dosage. Before experimentation, the animals were fasted for 24 hours with water ad libitum, and maintained at a temperature of 21° C. with 70% relative humidity and a 12 hour light/dark cycle. After oral administration, tail vein blood samples were collected (0.1 ml) into heparinized 0.65 ml micro-centrifuge tubes at the following time intervals: 0, 15, 30, 45, 60, 90, 120, 240, 360, 480, and 720 minutes. The blood samples then were immediately centrifuged at 4,000 rotations per minute (rpm) for 15 minutes at 4 degrees Celsius (° C.), and the resulting plasma was collected and stored at −80° C. until analysis.
To estimate the concentration of total glucuronide and sulfate conjugates of silybin in bio-samples including plasma, cell, and media, enzymatic hydrolysis with […] (8000 U/ml) and sulfatase (80 units per milliliter (U/ml)) was performed with 10 microliter (μl) aliquot of samples. The reactions were terminated by the addition of 40 μl of ice-cold acetonitrile containing 1% glacial acetic acid and internal standard NG (25 ng/ml). After centrifugation at 13,500 rotations per minute (rpm) for 15 minutes at 4° C., the supernatants were evaporated to dryness by nitrogen evaporator, and the residue was reconstituted with 60 μl of 30% methanol in water containing 1% ascorbic acid. An aliquot of 10 μl of the final solution was injected into LC-MS/MS for analysis. The completion of de-conjugation reaction was monitored by mass spectrometry. In parallel, 10 μl aliquots of samples without enzymes were treated with 40 μl of ice-cold acetonitrile containing 1% glacial acetic acid and naringenin (NG) (25 nanogram per milliliter (ng/ml)) to determine the concentration of free silybin. The total concentrations of glucuronides and sulfates in samples were estimated from the difference between the amount of silybin released by incubation with both glucuronidase and sulfatase and the amount of free silybin without enzymes incubation.
The analysis of silybin and total concentrations of glucuronides and sulfates was performed on an Agilent HP 1100 LC-MS system (Agilent, CA). A Waters ACQUITY UPLC® BEH C18 Column (1.7 μm, 2.1×50 mm, Waters Corp., Ireland) was used for detection with a C18 Security Guard cartridge (4×2.0 mm i.d., Phenomenex, Torrance, Calif.). Silybin A and silybin B were well separated using optimized gradient elution with methanol (mobile phase B) and 0.1% formic acid in water (mobile phase A) as mobile phase at a flow rate of 0.4 ml/min with a run time of 10 minutes. The gradient employed was as follows (time: mobile phase B percentage): 0 min: 25%, 6 minutes: 40%, 6.5 minutes: 25%.
Pharmacokinetic parameters including half-life (T1/2), volume of distribution (Vd), oral clearance (CL/F), and area under the concentration-time curve (AUC) were calculated using the software package PK Solutions 2.0.2 (SUMMIT Co., Ashland, Ohio, USA) with non-compartment analysis. One-way analysis of variance (ANOVA) was used when multiple groups were compared and the Bonferroni post hoc correction was used to accommodate multiple testing. The two-sided unpaired Student's t-test was used when treatments or differences between two groups were compared. […] During all statistical analyses, differences in group sizes were considered in the calculations. Differences were considered statistically significant when P<0.05. All data is presented as geometric mean±S.D.

MDR1 (P-gp) = MDR1 (P-gp) (Homo sapiens, UniProt P08183); test: cell-based
Method: (§1) Parental Madin-Darby canine kidney II (MDCKII), multi-drug resistance gene 1-Madin-Darby canine kidney II (MDR1-MDCKII), breast cancer resistance protein-Madin-Darby canine kidney II (BCRP-MDCKII), and multi-drug resistance protein 2-Madin-Darby canine kidney II (MRP2-MDCKII) cells were kindly provided by the Netherlands Cancer Institute (Amsterdam, Netherlands) and frozen at −80° C. The MDCKII cells were cultured at 37° C./5% CO2 in Dulbecco's modified Eagle's medium supplemented with 10% fetal bovine serum, 1% nonessential amino acids, and 2% penicillin-streptomycin. The cells were seeded on transwell inserts (Corning Inc.) at a density of 2.0×10^5 cells/cm^2 and grown for 4-5 days to form confluent monolayers.
(§2) Bidirectional transport assays in human colorectal adenocarcinoma 2 (Caco-2) and Madin-Darby canine kidney II (MDCK II) was carried out by dosing substrates in assay buffer to either the apical chamber (A-to-B) or the basolateral chamber (B-to-A); cells were then incubated at 37° C. with shaking at 50 rotations per minute (rpm), and 100 μl samples were collected at 30, 60, 90, 120 and 180 minutes from the basolateral chamber to study the drug transport of AP to BL, or apical chamber to study the drug transport of BL to AP. Cell monolayers were then washed twice with ice-cold assay buffer and lysed with methanol on ice for 10 minutes. For inhibition studies, Caco-2 or MDCK II cell monolayers were pre-incubated with an inhibitor in both apical and basolateral chambers for 30 minutes, and bidirectional transport of 10 μM silybin was conducted in the absence (control) or presence of the inhibitor in both chambers. […] For fluorescence intensity detection, samples collected from AP or BL side were immediately detected in 96 well black plate by Microplate ultraviolet-visible spectroscopy (UV/VIS) spectrophotometer (TECAN infinite M200 PRO, Männedorf, Switzerland). In all cases, each determination was performed in triplicate.
(§3) The apparent permeability coefficients (Papp) were calculated as Papp=dQ/dt×1/(C“0”A) where dQ/dt (mM/sec) is the rate of permeation of the drug across the cells, C0 (millimolar (mM)) is the donor compartment concentration at time zero and A (cm^2) is the area of the cell monolayer. C0 is obtained from analysis of the dosing solution at the start experiment. Efflux Ratio (ER)=Papp (B to A)/Papp (A to B), while Papp (B−A) is the Papp value measured in the B to A direction, and Papp (A−B) is the Papp value measured in the A to B direction. 1.5 Preparation of Rat Sandwich-Cultured Hepatocytes
(§4) (*, P<0.05;**, P<0.01; ***, P<0.001 vs absence of any inhibitor. n=3).
as §4

MRP2 = MRP2 (Homo sapiens, UniProt Q92887); test: cell-based; conditions: for efflux ratio of CDCFDA in the presence of inhibitor: dog, 180 min
Method: as §1, §2, §3, §4, §4

Sequence of MRP2 (Q92887 whole entry): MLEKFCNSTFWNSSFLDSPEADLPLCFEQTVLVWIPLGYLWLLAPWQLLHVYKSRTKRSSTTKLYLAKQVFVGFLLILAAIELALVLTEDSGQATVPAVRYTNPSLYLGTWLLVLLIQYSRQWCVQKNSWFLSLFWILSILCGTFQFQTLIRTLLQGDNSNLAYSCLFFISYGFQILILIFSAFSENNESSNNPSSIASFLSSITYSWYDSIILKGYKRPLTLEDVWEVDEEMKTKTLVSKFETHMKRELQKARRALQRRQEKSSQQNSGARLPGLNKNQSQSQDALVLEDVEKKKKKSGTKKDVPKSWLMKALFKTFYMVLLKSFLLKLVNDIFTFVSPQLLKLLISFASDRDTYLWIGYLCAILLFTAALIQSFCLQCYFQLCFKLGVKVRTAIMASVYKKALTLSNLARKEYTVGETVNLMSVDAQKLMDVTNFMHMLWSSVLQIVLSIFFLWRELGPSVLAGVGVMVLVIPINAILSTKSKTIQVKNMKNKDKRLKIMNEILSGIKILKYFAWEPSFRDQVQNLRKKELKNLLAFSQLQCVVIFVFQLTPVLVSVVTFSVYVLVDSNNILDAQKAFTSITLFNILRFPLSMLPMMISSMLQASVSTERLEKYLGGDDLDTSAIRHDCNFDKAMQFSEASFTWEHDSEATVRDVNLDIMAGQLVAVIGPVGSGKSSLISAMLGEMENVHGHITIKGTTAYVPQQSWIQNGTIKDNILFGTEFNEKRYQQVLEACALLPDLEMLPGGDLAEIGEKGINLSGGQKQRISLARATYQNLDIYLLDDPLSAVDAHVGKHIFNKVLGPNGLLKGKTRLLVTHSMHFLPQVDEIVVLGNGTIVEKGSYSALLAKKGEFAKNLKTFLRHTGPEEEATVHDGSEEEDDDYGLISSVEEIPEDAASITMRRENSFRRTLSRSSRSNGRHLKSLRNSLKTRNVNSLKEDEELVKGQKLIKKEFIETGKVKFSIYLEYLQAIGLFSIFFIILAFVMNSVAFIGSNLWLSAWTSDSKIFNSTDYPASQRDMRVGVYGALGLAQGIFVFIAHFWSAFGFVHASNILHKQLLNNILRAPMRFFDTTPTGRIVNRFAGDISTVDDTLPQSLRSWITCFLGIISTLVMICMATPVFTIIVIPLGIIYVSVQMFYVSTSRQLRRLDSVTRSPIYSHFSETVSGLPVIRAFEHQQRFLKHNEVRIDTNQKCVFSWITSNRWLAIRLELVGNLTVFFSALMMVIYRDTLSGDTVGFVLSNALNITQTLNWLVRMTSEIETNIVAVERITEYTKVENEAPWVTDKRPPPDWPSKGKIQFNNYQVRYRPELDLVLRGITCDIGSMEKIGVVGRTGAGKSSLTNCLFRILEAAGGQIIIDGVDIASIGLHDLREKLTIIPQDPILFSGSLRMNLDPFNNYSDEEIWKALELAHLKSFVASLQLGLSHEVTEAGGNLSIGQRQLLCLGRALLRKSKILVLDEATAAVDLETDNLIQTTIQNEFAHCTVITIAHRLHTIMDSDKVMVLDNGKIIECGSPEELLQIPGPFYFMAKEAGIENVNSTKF
Sequence of MDR1 (P-gp) (P08183 whole entry): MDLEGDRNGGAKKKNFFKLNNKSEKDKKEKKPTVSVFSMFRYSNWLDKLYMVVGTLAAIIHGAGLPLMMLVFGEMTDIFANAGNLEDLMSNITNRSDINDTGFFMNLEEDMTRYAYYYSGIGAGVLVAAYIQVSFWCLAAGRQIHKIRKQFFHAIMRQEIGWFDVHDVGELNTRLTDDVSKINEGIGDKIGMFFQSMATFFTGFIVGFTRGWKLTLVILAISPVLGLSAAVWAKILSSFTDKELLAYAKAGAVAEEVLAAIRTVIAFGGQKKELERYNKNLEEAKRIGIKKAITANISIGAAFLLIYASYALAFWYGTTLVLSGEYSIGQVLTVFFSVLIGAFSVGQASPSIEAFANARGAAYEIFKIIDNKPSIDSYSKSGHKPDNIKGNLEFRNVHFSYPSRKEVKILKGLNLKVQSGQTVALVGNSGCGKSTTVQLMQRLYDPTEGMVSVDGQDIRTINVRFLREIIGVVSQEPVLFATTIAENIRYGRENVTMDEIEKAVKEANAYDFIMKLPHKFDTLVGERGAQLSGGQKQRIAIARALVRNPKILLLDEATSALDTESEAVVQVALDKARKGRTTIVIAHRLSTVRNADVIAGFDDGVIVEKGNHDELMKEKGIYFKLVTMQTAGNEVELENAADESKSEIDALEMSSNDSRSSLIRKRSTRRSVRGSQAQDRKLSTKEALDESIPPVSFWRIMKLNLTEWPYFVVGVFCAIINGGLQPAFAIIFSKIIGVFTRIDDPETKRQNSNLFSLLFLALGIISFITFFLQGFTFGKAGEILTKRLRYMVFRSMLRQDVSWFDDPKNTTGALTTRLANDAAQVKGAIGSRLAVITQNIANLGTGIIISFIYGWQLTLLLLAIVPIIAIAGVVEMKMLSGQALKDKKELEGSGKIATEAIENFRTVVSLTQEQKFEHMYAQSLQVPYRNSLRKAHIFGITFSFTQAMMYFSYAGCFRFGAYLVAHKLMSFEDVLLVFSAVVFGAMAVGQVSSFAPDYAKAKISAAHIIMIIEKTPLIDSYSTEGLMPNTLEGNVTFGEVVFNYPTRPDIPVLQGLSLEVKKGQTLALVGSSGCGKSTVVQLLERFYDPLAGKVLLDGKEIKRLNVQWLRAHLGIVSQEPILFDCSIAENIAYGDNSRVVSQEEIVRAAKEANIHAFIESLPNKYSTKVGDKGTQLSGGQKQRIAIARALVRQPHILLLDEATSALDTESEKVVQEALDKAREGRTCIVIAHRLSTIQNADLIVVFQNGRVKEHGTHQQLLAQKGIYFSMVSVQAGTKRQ

fraction existing as conjugates in rat plasma [1]	Cmax of free silybin [1]	mean Cmax of total silybin (parent plus sulfate and glucuronide conjugates) [1]	SMILES	pIC50 (MDR1 (P-gp))	pIC50 (MRP2)	efflux ratio of CDCFDA in the presence of inhibitor (MRP2)
about 97%	26 ± 13 ng/mL	1109 ± 158 ng/mL	COc1cc([C@H]2Oc3cc([C@H]4Oc5cc(O)cc(O)c5C(=O)[C@@H]4O)ccc3O[C@@H]2CO)ccc1O [silybin A]			
			COc1ccc(-c2cc(=O)c3c(OC)c(OC)c(OC)c(OC)c3o2)cc1 [tangeretin]	5.16	5.05	1.54
~99%	16 ± 5 ng/mL	2478 ± 284 ng/mL	COc1cc([C@@H]2Oc3cc([C@H]4Oc5cc(O)cc(O)c5C(=O)[C@@H]4O)ccc3O[C@H]2CO)ccc1O [silybin B]			
			O=c1cc(-c2ccccc2)oc2cc(O)c(O)c(O)c12 [baicalein]	4.69	4.67	1.46
